Reference: ChEMBL document CHEMBL1201862, “PubChem BioAssay data set” (2004)
The source made the active and inactive calls.

Assays:
[1] = molecular target: T1, Sentrin-specific protease 8 (Homo sapiens, UniProt Q96LD8); type: functional;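 also: luminescence read-out of SENP8 inhibition, dose-response confirmation following an ultra-high-throughput screen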
T1 sequence (Q96LD8 whole entry): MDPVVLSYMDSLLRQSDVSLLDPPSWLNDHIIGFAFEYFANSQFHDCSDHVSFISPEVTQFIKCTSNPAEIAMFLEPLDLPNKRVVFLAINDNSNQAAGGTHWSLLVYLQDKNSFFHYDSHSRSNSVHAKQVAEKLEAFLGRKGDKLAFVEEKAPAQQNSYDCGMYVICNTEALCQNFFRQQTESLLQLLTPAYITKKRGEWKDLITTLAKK

[2] = molecular target: T2, Tyrosyl-DNA phosphodiesterase 2 (Homo sapiens, UniProt O95551); assay: potency against TDP2 phosphodiesterase activity – biochemical, epi absorbance, IC50, dose response (AID 743297)
T2 sequence (O95551 whole entry): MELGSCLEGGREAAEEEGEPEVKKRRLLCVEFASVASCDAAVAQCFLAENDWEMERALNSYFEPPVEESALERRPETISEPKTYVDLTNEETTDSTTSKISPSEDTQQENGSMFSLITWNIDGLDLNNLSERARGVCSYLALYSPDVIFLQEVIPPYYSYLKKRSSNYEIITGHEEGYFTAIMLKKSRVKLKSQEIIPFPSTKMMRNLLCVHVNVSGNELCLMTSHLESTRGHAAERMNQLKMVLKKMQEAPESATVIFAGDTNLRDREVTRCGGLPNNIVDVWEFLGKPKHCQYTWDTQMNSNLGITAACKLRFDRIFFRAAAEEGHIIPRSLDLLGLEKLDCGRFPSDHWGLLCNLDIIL

[3] = molecular target: Serine/threonine-protein phosphatase (Homo sapiens, UniProt Q9BPW0); assay: inhibition of protein phosphatase 5 activity – biochemical, fluorescence, dose response (AID 2395)
Sequence of Serine/threonine-protein phosphatase (Q9BPW0 whole entry): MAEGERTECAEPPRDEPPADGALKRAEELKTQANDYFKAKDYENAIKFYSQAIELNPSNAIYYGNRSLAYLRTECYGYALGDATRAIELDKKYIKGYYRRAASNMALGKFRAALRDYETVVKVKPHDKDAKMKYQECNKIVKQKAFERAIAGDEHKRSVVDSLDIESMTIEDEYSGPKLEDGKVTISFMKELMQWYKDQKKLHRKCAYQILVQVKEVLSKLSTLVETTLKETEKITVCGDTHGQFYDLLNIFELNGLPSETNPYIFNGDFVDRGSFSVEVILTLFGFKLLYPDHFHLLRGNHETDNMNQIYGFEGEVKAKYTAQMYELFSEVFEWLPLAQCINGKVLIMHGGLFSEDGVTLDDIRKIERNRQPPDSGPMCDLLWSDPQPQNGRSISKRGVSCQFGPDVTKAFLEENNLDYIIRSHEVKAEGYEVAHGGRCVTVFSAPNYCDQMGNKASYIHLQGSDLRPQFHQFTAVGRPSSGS

[4] = molecular target: Serine/threonine-protein phosphatase PP1-alpha catalytic subunit (Homo sapiens, UniProt P62136); assay: inhibition of protein phosphatase 1 activity – biochemical, fluorescence, dose response (AID 2394)
Sequence of Serine/threonine-protein phosphatase PP1-alpha catalytic subunit (P62136 whole entry): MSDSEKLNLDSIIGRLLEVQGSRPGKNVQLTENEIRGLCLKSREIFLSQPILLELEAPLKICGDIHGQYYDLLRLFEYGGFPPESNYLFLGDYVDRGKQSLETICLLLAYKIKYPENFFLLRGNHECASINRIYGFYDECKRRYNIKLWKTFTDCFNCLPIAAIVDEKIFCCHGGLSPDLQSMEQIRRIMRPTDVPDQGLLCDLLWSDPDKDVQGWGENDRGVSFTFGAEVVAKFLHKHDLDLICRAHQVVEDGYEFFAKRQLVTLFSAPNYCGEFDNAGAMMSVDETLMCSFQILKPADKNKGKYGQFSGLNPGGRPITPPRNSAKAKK

[5] = molecular target: T3, Apoptotic protease-activating factor 1 (Homo sapiens, UniProt O14727); type: functional
T3 sequence (O14727 whole entry): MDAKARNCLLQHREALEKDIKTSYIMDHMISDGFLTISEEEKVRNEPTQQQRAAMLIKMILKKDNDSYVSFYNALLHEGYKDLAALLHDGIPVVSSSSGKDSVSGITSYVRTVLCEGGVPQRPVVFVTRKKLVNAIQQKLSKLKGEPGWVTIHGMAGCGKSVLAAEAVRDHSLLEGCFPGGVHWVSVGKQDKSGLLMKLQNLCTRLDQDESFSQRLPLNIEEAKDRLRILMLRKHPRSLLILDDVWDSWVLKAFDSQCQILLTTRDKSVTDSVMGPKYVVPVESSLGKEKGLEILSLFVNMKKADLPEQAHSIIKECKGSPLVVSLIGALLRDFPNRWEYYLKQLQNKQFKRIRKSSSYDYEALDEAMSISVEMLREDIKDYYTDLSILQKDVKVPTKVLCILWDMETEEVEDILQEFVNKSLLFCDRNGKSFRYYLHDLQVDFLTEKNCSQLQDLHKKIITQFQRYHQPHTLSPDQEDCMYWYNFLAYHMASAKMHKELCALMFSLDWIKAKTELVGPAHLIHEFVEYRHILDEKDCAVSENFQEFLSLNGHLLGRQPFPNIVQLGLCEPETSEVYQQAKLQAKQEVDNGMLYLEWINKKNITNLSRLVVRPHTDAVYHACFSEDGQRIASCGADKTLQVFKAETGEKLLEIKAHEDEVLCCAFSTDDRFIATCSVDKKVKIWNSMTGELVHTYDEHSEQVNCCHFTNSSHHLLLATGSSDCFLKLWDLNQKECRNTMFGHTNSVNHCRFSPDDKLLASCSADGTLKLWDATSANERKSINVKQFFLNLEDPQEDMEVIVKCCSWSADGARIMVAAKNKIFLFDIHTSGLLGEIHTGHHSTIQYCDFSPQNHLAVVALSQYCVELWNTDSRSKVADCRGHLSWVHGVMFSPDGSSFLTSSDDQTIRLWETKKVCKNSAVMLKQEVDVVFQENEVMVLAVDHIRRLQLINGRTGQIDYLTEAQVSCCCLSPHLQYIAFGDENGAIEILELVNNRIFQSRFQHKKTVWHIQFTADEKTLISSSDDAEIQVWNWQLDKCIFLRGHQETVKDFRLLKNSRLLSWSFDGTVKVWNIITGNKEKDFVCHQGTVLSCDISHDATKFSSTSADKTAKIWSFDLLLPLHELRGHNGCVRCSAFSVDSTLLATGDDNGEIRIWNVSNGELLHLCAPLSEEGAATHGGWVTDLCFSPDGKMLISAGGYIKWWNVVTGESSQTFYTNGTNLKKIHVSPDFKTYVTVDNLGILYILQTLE

cells = type: functional
[6] = molecular target: T4, Replicative DNA helicase DnaB (Mycobacterium tuberculosis, UniProt P9WMR3); assay: DnaB intein splicing inhibitors, dose response, biochemical, cell-free fluorescence (AID 449749); type: functional
T4 sequence (P9WMR3 whole entry): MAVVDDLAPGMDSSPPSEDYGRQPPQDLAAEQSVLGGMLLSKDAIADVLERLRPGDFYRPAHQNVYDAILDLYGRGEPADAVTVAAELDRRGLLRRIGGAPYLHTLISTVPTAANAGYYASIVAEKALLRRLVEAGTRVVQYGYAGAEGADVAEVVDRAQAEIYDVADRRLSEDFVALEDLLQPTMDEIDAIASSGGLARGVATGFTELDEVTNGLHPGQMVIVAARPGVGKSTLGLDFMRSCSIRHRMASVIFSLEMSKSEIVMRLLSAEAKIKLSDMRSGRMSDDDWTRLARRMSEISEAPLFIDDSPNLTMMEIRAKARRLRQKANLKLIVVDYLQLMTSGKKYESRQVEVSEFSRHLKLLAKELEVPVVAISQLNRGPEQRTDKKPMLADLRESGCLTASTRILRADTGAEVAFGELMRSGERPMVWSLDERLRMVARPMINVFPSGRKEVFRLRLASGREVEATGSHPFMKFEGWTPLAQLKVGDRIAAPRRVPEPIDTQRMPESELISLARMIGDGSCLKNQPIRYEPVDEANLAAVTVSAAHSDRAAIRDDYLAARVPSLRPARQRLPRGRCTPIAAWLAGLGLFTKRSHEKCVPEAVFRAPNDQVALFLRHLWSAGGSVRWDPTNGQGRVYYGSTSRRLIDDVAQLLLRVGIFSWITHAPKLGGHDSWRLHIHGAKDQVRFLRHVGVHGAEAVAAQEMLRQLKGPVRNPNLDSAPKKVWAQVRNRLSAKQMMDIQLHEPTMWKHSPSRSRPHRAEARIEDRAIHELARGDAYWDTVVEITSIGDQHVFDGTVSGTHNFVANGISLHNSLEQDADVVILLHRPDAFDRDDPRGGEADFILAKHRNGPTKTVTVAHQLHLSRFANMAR

CHO = CHO cell viability loss, potency – luminescence, cytotoxicity control for TLR9-MyD88 binding inhibitor project, dose response (AID 588339); type: functional, cell-based, hamster; conditions: Cricetulus griseus;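 also: CHO cells stably coexpressing TLR9 and MyD88 fusions from primary screen; compound exposure lasted 48 hours before viability readout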

Structure (SMILES) | IC50 [1] | IC50 [2] | IC50 [3] | IC50 [4] | IC50 [5] | IC50 (cells) | AC50 [6] | IC50 (CHO)
O=C(NC1(O)C(=O)c2ccccc2C1=O)c1ccc(C(F)(F)F)cc1 | 4.9 µM (active) | 3.85 µM (active) | > 0.828 µM (active) | > 67 µM (not active) | 2.97 µM (active) |  |  | 
Cn1c(=O)[nH]c(=O)c2c1nc([N+](=O)[O-])n2Cc1ccccc1 |  |  |  |  |  | 4.75 µM (active) | 26.2 µM (active) | 2.23 µM (active)
O=C(NC1(O)C(=O)c2ccccc2C1=O)c1c(Cl)cccc1Cl | 4.78 µM (active) | 4.2 µM (active) | > 2.48 µM (active) | > 67 µM (not active) | 2.7 µM (active) |  | 17.3 µM (active) | 
O=C(COC(=O)c1ccc([N+](=O)[O-])s1)Nc1ncc(C(F)(F)F)cc1Cl | 4.83 µM (active) |  |  |  |  |  |  | 
CCN(c1ccccc1)c1cc2ccccc2c(=O)[nH]1 | 3.73 µM (active) |  |  |  | 18.7 µM (active) |  | > 380 µM (inactive) | 
